In one data set the test system is MDR1, BCRP. Kind of data set: Efflux ratio of apparent permeability across basolateral to apical side over apical to basolateral side in MDCKII-MDR1-BCRP cells at 1 uM incubated for 90 mins. It is filed as ADME, cell-based, Canis lupus familiaris. The conditions noted are these: dog.
For data set [1], the target named is T1, Receptor tyrosine-protein kinase erbB-4 (Homo sapiens, UniProt Q15303). Kind of data set: Inhibition of ERBB4 (unknown origin) at 0.1 uM relative to control.
Data set [2] has as its target T1, Receptor tyrosine-protein kinase erbB-4. Kind of data set: Inhibition of ERBB4 (unknown origin).
The test system of another data set is Mus musculus. Kind of data set: In vivo inhibition of EGFR phosphorylation in female SCID mouse xenografted with NCI-H2073 cells harboring EGFR D770_N771insSVD mutant at 100 mg/kg, po measured after 1 to 6 hrs by immunoblotting analysis. It is filed as functional, organism-based. As to conditions: time 1-6 hrs.
Data set [3] can be described thus: Inhibition of EGFR Ex20ins ASV mutant (unknown origin) transfected in human NCI-H2073 cells. It is filed as cell-based.
Data set [4] is described as follows: Metabolic stability in human liver microsomes assessed as intrinsic clearance at 1 uM incubated for 30 mins in presence of NADPH by LC-MS/MS analysis. It is filed as ADME, Microsome. As to conditions: read-out: CLH.
Data set [5] in a line: Lipophilicity, logD of compound in octanol and aqueous buffer at pH 7.4 incubated for 2 hrs by shake-flask method based LC-MS/MS analysis. It is filed as physicochemical.
For data set [6], the target named is TRAF2 and NCK-interacting protein kinase (Homo sapiens) (UniProt Q9UKE5). Kind of data set: Inhibition of TNIK (unknown origin) at 0.1 uM relative to control.
Data set [7] in a line: Antitumor activity against human NCI-H2073 cells harboring wildtype EGFR xenografted in female SCID mouse assessed as tumor growth inhibition at 100 mg/kg, po administered once daily for 15 days relative to control. It is filed as functional. As to conditions: NCI-H2073, 360 h, time 15 day, read-out: TGI. (In general: In xenograft studies the graft and the host belong to different species.)

In data set [8] the target is T2, Tyrosine-protein kinase BTK (Homo sapiens, UniProt Q06187). Kind of data set: Inhibition of BTK (unknown origin).
Data set [9] has as its target T2, Tyrosine-protein kinase BTK. Kind of data set: Inhibition of BTK (unknown origin) at 0.1 uM relative to control.
A short description of data set [10]: Metabolic stability in rat hepatocytes assessed as intrinsic clearance measured per 10^6 cells at 1 uM incubated for 120 mins by LC-MS/MS analysis. It is filed as ADME, cell-based, Hepatocyte. As to conditions: read-out: CLH.
Data set [11] deals with Tyrosine-protein kinase Blk (Homo sapiens) (UniProt P51451). Kind of data set: Inhibition of BLK (unknown origin) at 0.1 uM relative to control.
Data set [12] can be described thus: Duration (time) of SCID mouse free plasma concentration cover over EGFR insSVD cell IC50 at 50 mg/kg, po. It is filed as ADME, organism-based. The conditions noted are these: in vivo.
A short description of data set [13]: Antitumor activity against human NCI-H2073 cells harboring EGFR D770_N771insSVD mutant xenografted in female SCID mouse assessed as tumor growth inhibition at 100 mg/kg, po administered once daily for 14 days relative to control. It is filed as functional. As to conditions: NCI-H2073, 336 h, time 14 day, read-out: TGI.
Data set [14] is described as follows: Toxicity in female SCID mouse xenografted with human NCI-H2073 cells harboring EGFR D770_N771insSVD mutant assessed as body weight loss at 100 mg/kg, po administered once daily for 14 days. It is filed as organism-based. As to conditions: in vivo, 336 h, time 14 day.
In data set [15] the target is Misshapen-like kinase 1 (Homo sapiens) (UniProt Q8N4C8). Kind of data set: Inhibition of MINK1 (unknown origin) at 0.1 uM relative to control.
Data set [16] can be described thus: Inhibition of EGFR Ex20ins NPG mutant (unknown origin) transfected in human NCI-H2073 cells. It is filed as cell-based.
Data set [17] can be described thus: Metabolic stability in CD-1 mouse hepatocytes assessed as intrinsic clearance measured per 10^6 cells at 1 uM incubated for 120 mins by LC-MS/MS analysis. As to conditions: read-out: CLH. It is filed as ADME, cell-based, Hepatocyte.
For data set [18], the target named is T3, Epidermal growth factor receptor (Homo sapiens, UniProt P00533). Kind of data set: Inhibition of wildtype EGFR (unknown origin) phosphorylation transfected in human NCI-H2073 cells preincubated for 2 hrs followed by EGF stimulation for 10 mins by HTRF assay. It is filed as cell-based. Background: Time-resolved FRET reads energy transfer from a long-lived donor to a nearby acceptor.

The test system of the next data set is MDR1. Kind of data set: Efflux ratio of apparent permeability across basolateral to apical side over apical to basolateral side in MDCKII-MDR1 cells at 1 uM incubated for 2 hrs by LC-MS/MS analysis. It is filed as ADME, cell-based, Canis lupus familiaris. As to conditions: dog, MDCK-MDR1.
In data set [19] the target is T4, Epidermal growth factor receptor (Homo sapiens, UniProt P00533, D770-N771INSSVD). Kind of data set: Inhibition of EGFR D770_N771insSVD mutant (unknown origin) phosphorylation transfected in human NCI-H2073 cells incubated for 2 hrs by HTRF assay. It is filed as cell-based.
The nature of data set [20]: Selectivity ratio of IC50 for inhibition of wildtype EGFR (unknown origin) transfected in human NCI-H2073 cells preincubated for 2 hrs followed by EGF stimulation for 10 mins by HTRF assay to IC50 for inhibition of EGFR D770_N771insSVD mutant (unknown origin) transfected in human NCI-H2073 cells incubated for 2 hrs by HTRF assay. It is filed as cell-based.
Data set [21] is described as follows: Drug metabolism in human liver microsomes assessed as O-dealkylation mediated fluoro-phenolic metabolite formation incubated for 60 mins by LC-MS/MS analysis. It is filed as ADME, Microsome. The conditions noted are these: 1 h.
The target in data set [22] is T3, Epidermal growth factor receptor. Kind of data set: Inhibition of recombinant wildtype human N-terminal GST-tagged EGFR cytoplasmic domain (669 to 1210 residues) expressed in Sf21 insect cells using Poly(Glu,Tyr) peptide as substrate preincubated for 15 mins followed by substrate addition and measured after 50 mins in presence of ATP by ADP-Glo reagent based assay.

For data set [23] the target is unchanged. Kind of data set: Inhibition of wildtype EGFR (unknown origin) phosphorylation transfected in human NCI-H2073 cells preincubated for 2 hrs followed by EGF stimulation for 10 mins by ELISA. It is filed as cell-based. In general terms: ELISA stands for enzyme-linked immunosorbent assay.
A short description of data set [24]: Selectivity ratio of IC50 for inhibition of wildtype EGFR (unknown origin) transfected in human NCI-H2073 cells preincubated for 2 hrs followed by EGF stimulation for 10 mins by ELISA to IC50 for inhibition of EGFR D770_N771insSVD mutant (unknown origin) transfected in human NCI-H2073 cells incubated for 2 hrs by ELISA. It is filed as cell-based.
The target in data set [25] is T4, Epidermal growth factor receptor. Kind of data set: Inhibition of EGFR D770_N771insSVD mutant (unknown origin) phosphorylation transfected in human NCI-H2073 cells incubated for 2 hrs by ELISA. It is filed as cell-based.
A short description of data set [26]: Selectivity ratio of Ki/Kinact for inhibition of EGFR D770_N771insNPG mutant (unknown origin) using AQT0099 as substrate to Ki/Kinact for inhibition of wildtype EGFR (unknown origin) using AQT0099 as substrate.
In data set [27] the target is Epidermal growth factor receptor (Homo sapiens, UniProt P00533, D770-N771INSNPG). Kind of data set: Inhibition of 6His-tagged TEV-GS fused EGFR D770_N771insNPG mutant (G696 to G1210 reisudes) (unknown origin) expressed in Sf21 cells using Poly(Glu,Tyr) peptide as substrate preincubated for 15 mins followed by substrate addition and measured after 30 mins in presence of ATP by ADP-Glo reagent based assay.

Structures are written as SMILES. The source made the active and inactive calls. The calls are words filed in the database; no cut-off is given here. Where only a bound is given, the exact number is not on record here.

T4 sequence (P00533 whole entry, looked up, stated change not applied): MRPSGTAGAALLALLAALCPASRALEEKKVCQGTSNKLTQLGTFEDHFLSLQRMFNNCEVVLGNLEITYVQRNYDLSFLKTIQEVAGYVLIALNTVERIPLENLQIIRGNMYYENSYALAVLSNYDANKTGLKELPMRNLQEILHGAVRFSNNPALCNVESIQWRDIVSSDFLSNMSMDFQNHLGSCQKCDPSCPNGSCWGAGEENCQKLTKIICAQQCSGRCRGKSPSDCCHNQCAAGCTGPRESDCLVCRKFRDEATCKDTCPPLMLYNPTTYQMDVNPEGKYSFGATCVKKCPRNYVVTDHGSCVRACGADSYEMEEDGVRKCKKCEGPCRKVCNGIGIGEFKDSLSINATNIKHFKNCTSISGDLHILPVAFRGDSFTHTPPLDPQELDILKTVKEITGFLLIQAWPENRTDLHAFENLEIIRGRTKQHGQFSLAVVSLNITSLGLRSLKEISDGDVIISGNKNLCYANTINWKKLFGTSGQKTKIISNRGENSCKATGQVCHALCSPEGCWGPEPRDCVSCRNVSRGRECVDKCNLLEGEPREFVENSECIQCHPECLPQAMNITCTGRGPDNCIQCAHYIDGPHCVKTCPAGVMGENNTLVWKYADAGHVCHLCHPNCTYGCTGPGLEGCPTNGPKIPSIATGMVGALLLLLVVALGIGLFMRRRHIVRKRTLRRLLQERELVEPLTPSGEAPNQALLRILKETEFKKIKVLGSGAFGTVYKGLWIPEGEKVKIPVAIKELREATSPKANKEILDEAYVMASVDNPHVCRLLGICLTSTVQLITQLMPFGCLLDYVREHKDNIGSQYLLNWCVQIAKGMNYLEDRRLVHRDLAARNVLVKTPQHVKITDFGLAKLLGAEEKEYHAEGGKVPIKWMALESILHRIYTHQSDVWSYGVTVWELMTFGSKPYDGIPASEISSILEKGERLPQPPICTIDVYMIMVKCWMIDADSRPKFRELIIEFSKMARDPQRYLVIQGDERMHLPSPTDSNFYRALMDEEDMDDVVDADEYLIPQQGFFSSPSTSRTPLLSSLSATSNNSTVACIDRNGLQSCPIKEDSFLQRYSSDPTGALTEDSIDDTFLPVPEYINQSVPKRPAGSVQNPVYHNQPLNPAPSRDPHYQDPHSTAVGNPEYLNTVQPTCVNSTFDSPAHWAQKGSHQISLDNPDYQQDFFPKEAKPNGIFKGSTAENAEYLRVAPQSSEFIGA
T3 sequence (P00533 whole entry): as the sequence (P00533 whole entry, looked up, stated change not applied) above
T1 sequence (Q15303 whole entry): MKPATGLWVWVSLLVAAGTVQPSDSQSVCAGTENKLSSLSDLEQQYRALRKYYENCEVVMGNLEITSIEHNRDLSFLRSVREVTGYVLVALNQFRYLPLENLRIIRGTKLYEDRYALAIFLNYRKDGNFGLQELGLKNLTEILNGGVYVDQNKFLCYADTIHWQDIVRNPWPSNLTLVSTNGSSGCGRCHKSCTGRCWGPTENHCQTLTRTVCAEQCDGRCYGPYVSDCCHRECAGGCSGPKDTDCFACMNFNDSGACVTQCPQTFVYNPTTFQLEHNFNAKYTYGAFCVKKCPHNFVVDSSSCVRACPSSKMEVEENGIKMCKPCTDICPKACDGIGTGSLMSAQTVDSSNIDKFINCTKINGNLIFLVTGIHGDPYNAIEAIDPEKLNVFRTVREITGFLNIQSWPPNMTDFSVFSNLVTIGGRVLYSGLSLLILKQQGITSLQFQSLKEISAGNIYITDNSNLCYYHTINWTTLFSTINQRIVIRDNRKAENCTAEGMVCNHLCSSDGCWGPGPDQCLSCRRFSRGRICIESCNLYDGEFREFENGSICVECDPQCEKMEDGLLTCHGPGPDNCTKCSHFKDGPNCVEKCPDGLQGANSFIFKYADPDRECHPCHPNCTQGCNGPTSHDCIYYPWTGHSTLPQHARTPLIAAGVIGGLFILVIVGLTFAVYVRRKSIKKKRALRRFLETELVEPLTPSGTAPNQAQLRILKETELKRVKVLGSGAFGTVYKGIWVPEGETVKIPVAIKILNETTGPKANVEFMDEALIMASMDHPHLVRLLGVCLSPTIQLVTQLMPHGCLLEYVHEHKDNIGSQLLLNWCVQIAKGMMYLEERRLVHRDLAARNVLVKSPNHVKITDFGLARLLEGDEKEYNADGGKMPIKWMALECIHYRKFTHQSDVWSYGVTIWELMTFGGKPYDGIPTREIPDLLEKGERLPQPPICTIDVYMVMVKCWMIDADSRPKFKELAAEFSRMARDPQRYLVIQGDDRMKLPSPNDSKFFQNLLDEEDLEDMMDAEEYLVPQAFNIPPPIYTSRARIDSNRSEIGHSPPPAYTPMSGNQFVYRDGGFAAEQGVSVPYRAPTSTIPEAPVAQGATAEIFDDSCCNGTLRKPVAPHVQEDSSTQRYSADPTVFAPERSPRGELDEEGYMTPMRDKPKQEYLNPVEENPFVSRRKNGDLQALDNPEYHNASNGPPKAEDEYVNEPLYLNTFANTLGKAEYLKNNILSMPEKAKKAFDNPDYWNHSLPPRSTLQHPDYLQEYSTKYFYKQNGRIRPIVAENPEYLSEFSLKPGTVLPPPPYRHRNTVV
T2 sequence (Q06187 whole entry): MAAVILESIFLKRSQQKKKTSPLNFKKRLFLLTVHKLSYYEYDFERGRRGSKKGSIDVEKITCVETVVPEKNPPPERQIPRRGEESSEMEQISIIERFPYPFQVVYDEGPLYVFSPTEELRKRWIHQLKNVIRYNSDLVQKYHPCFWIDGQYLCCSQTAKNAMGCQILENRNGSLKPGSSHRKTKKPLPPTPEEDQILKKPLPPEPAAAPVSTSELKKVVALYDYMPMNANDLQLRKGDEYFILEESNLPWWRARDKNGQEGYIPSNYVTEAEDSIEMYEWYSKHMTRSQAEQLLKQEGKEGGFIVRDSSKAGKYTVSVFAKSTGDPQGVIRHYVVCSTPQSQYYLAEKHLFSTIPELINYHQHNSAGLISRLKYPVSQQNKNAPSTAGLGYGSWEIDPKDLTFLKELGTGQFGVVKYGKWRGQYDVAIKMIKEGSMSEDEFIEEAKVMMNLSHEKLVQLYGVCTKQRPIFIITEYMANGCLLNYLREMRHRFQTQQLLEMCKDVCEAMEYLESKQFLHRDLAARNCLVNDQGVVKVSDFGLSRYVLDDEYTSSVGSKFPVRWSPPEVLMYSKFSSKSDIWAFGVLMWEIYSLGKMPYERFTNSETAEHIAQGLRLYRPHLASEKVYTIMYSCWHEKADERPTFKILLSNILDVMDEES
Chain of Tyrosine-protein kinase Blk (Homo sapiens) (P51451 2-505 limits assumed): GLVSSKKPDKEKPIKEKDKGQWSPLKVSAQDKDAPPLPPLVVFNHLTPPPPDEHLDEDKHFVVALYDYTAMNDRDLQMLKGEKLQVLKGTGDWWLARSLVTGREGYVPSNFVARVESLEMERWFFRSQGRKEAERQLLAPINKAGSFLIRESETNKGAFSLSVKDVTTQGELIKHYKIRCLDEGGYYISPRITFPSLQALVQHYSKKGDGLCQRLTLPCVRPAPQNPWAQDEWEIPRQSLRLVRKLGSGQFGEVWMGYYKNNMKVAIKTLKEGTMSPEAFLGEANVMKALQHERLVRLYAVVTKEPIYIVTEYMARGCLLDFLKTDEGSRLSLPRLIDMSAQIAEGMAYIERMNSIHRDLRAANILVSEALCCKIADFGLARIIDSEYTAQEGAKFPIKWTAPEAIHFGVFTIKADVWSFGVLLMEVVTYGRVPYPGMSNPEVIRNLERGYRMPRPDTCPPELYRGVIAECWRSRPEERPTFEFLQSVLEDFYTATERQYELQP

Take `C=CC(=O)Nc1cc(Nc2nccc(-c3cn(C)c4ccccc34)n2)c(OC)cc1N(C)CCN(C)C` [OSIMERTINIB]: the efflux ratio at 1.5 h, 1 µM in the data set with MDR1, BCRP worked out at 3.2.
As to `C=CC(=O)N1CC[C@H](n2cc(-c3ccncc3)c(-c3cccc(/C=C/c4ncc(C5CC5)o4)c3)n2)C1`, the inhibition was determined as 99% in [1]; 57% in [6]; 99% in data set [9]; 51% in [11]; 55% in [15]. For the same compound, the IC50 in [2] came out at 9 nM; in data set [3], 67 nM; in data set [8] it was 10 nM; in [16], 55 nM. The inhibition entry with Mus musculus is “Active”. Also, in [4], the microsomal CLint at 1 µM was determined as 214 µL/min/mg. The logD at 2 h in [5] is 4.8. Further, the inhibition in vivo at 100 mg/kg came to 13% in data set [7] and 62% in [13]. Besides, the hepatocyte CLint at 1 µM in data set [10] worked out at 43 µL/min/1e6 cells; in data set [17], 35 µL/min/1e6 cells. The compound also yielded a Time in [12] of 12 h. Further, the Activity in data set [14] is reported as below 10%.
As for `C=CC(=O)N1CC[C@H](n2cc(-c3ccncc3)c(-c3cccc(/C=C/c4ccc5c(c4)CN(C)C5=O)c3)n2)C1`, the microsomal CLint at 1 µM in data set [4] was 200 µL/min/mg. Besides, the IC50 in data set [18] was above 16000 nM; in data set [19] it was 220 nM. This compound had a logD at 2 h in data set [5] of 3.9. Besides, the efflux ratio at 2 h, 1 µM with MDR1 came out at 29. Besides, the hepatocyte CLint at 1 µM stood at 28 µL/min/1e6 cells in data set [10] and 29 µL/min/1e6 cells in data set [17]. For the same compound, the Ratio IC50 in data set [20] is above 73. In addition, the Time in data set [12] was found to be 0 h.
Regarding `C=CC(=O)N1CC[C@H](n2cc(-c3ccncc3)c(-c3ccc(F)c(OCc4ccc5c(c4)CN(C)C5=O)c3)n2)C1`, in data set [21], the Drug metabolism entry was “Metabolite_Detected”. For the same compound, the microsomal CLint at 1 µM in data set [4] was above 300 µL/min/mg. In data set [5], this compound came in with a logD at 2 h of 2.9.
Consider `C=CC(=O)N[C@H]1C=C(C)c2c(-c3cnc4ccccc4c3)c3c(N)ncnc3n2C1` [CLN-081], for which the IC50 was below 3 nM in data set [22]; 190 nM in data set [23]; 57 nM in [25]; 77 nM in data set [18]; 21 nM in [19]; below 3 nM in [27]. Besides, the Ratio IC50 in data set [24] was found to be 3.4; in data set [20] it was 3.6. In addition, the inhibition entry in the data set with Mus musculus was “Active”. The inhibition in vivo at 100 mg/kg turned out to be 63% in data set [7] and 69% in [13]. In addition, the Selectivity ratio in [26] is 0.79. Moreover, the Activity in [14] was below 10%.

As usually defined, the efflux ratio is the permeability from basolateral to apical divided by that in the opposite direction, in the common usage. By inhibition is commonly meant the drop in the measured response relative to a control, in per cent. The term IC50 denotes the midpoint of a concentration-inhibition curve. As a reminder, the logD is lipophilicity at a set pH, counting ionised and neutral species.

Source of the values: ChEMBL document CHEMBL5506057, “Discovery and Optimization of Potent, Efficacious and Selective Inhibitors Targeting EGFR Exon20 Insertion Mutations” (J Med Chem, 2024).
